pEC50: −log10 of the molar value. Entries after “also recorded” stand apart in the source; their conditions may differ. Like-named read-outs stand apart in the source and are kept apart here.
Columns and labels:
[1] = molecular target: T1, PYR1 receptor-HAB1 protein phosphatase complex (Arabidopsis thaliana, UniProt O49686); test: AlphaScreen assay: promotion of PYR1 receptor binding to PP2C protein phosphatase HAB1; settings: 6×His-SUMO-tagged PYR1 (whole coding sequence), Biotin-tagged HAB1 (aa 172-511), 100 nM each, pH 7.4, 1.5 h room temperature
T1 construct: made in house; host or cells: E. coli BL21 (DE3)
T1 sequence (O49686 1-191): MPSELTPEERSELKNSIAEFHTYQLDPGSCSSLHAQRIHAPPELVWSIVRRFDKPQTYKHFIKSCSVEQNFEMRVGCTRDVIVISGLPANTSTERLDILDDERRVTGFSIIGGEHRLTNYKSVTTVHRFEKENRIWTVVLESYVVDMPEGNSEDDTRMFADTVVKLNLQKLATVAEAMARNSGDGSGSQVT
T1 sequence (Q9CAJ0 172-511 partner limits assumed): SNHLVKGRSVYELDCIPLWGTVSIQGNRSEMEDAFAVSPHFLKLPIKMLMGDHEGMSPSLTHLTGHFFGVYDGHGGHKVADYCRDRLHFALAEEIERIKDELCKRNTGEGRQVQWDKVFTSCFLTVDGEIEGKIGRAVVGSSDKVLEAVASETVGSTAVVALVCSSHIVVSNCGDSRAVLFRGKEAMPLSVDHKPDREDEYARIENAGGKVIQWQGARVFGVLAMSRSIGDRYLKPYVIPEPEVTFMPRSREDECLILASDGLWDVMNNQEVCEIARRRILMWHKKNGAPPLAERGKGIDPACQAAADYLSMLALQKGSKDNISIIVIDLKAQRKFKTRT
Excerpt: The construction method of recombinant plasmids for the Arabidopsis thaliana genes PYL1 (amino acid sequence 36-211), PYL2 (amino acid sequence 14-188) with dual tags of 6×His and SUMO sequence and the Arabidopsis thaliana gene HAB1 (amino acid sequence 172-511) with the Biotin tag sequence is described in detail in “A gate-latch-lock mechanism for hormone signaling by abscisic acid receptors” (Nature, Vol 462, 2009). The construction method of recombinant plasmids for PYR1 and PYL7 (whole gene coding sequence) and Soybean GmPYL6 and rice OsPYL2 with dual tags of 6×His and SUMO sequence is the same as that for Arabidopsis PYL2.
The above recombinant plasmid is transformed into competent cell of E. coli BL21 (DE3) (purchased from NEB company), and inoculated into 200 ml of LB liquid medium containing Amp resistance (purchased from OXOID company) and cultured overnight at 37° C. at 200 rpm; and inoculated into 2 L of LB liquid medium containing Amp resistance at a ratio of 1:50-1:100 for an extended culture, and cultured at 37° C., 200 rpm for 3-4 hours, and at a low temperature of 16° C. until OD600 is about 0.8-1.0. Recombinant plasmids for PYR1/PYL1/PYL2/PYL7/GmPYL6/OsPYL2 with dual tags of 6×His and SUMO sequence were induced overnight with 100 μM of IPTG while HAB1 recombinant plasmid with the Biotin tag sequence was induced simultaneously with 100 μM of IPTG and 40 μM of biotin.
After 16 hours of induction, the bacterial solution was centrifuged at 4000 rpm for 20 minutes at 4° C. in a low-speed high-capacity centrifuge, and the bacteria cells were collected. Bacteria cells were resuspended in 50 ml of extraction buffer (containing 20 mM Tris, pH 8.0, 200 mM NaCl and 10% (v/v) glycerol) for per 2 L of bacterial solution and then subjected to pressure-breaking at […] and 4° C. for 3-5 times. The broken cells were subjected to ultracentrifugation, centrifuged at 16000 rpm for 30 minutes, and this process was repeated twice. The supernatant was collected and subjected to an affinity chromatography column.
For PYR/PYL proteins with dual tags of 6×His and SUMO sequences, 50 ml of affinity chromatography Ni column (50 ml Ni-NTA column, available from GE) was used. Firstly, the column was equilibrated with 600 ml of 10% buffer B (containing 20 mM Tris, PH 8.0, 200 mM NaCl, 500 mM imidazole and 10% glycerol), and then eluted with 200 ml of 50% buffer B and finally eluted with 100 ml of 100% buffer B. Proteins for crystal analysis were mixed with ulp1 enzyme at a molar ratio of 1000:1 for enzymatic dialysis overnight. The digested proteins were subjected to affinity chromatography on a Ni column once more. The collected solution was subjected to a HiLoad 26/60 Superdex200 gel filtration column (commercially available from GE) and eluted with an elution solution (containing 25 mM Tris, pH 8.0, 200 mM ammonium acetate, 1 mM dithiotreitol and 1 mM EDTA) to further separate and purify the protein.
For a HAB1 protein with a Biotin tag sequence, it was subjected to a 50 ml MBP affinity column (available from GE). The column was firstly equilibrated with 600 ml of 10% buffer C (containing 20 mM Tris, pH 8.0, 200 mM NaCl, 10 mM Maltose and 10% Glycerol), and eluted with 200 ml of 50% buffer C and finally eluted with 100 ml of 100% buffer C. […]

[2] = test system: soybean; test: Leaf transpiration experiment, soybean; format: in vivo; settings: 20 μM spray 14 days after sowing, two days after spraying; FIG. 5
Method: ABA synthesis mutant aba2-1 was used in Arabidopsis leaf transpiration experiment. […] Therefore, this mutant is used to exclude the effect of endogenous ABA on the transpiration experiment. The plants were sprayed with a solution containing 0.05% tween-20 and corresponding concentrations of (+)-ABA/0224/0304/0706/0715/0428 or 0.05% Tween-20 and 0.05% DMSO (control) after three weeks of continuous watering with an amount of 1.2 ml/pot. Leaf transpiration experiments of soybeans were conducted at 26° C. with long-day lighting and soybeans were sprayed with a solution containing 0.1% tween-20 and 20 μM (+)-ABA/0224/0304 compound or 0.1% Tween-20 and 0.05% DMSO (control) 14 days after sowing with an amount of 4 ml/pot; the leaf transpiration experiments of cottons were sprayed with a solution containing 0.1% tween-20 and 20 μM (+)-ABA/0224 compound or 0.1% Tween-20 and 0.05% DMSO, respectively, 25 days after sowing with an amount of 4 ml/pot; the leaf transpiration experiments of wheats were sprayed with a solution containing 0.1% tween-20 and 100 μM (+)-ABA/0224 compound or 0.1% Tween-20 and 0.05% DMSO (control) 18 days after sowing with an amount of 6 ml/pot. Images were taken daily using the FLIR A655sc thermal imager at the same time before and after spraying.
In this experiment, the temperature change of leaf surface was observed and recorded by an infrared camera, thus reflecting the strength of plant transpiration. The stronger the transpiration, the lower the leaf temperature.

pEC50 ([1]; FIG. 2a, read-out: EC50) | SMILES | pEC50 ([1]; EC50, FIG. 2a) | pEC50 ([1]; EC50, FIG. 2h) | leaf temperature versus DMSO control (leaf transpiration) [2]
 | CC1=CC(=O)CC(C)(C)[C@@]1(O)/C=C/C(C)=C\C(=O)O [ABA, Abscisic Acid, reference compound] | 5.45 | 5.37 | had no difference from that in the control group
6.83 | CCCN1C(=O)OC(C)(C)c2cc(NS(=O)(=O)Cc3c(F)c(F)c(C)c(F)c3F)ccc21 [Compound 0304] |  |  | significantly reduce the transpiration rate of soybean leaf; also recorded: still significant higher than that of plants in DMSO-sprayed control group
7.05 | CCCN1C(=O)OC(C)c2cc(NS(=O)(=O)Cc3c(F)c(F)c(C)c(F)c3F)ccc21 (stereo not shown) [Compound 0224] |  |  | significantly reduce the transpiration rate of soybean leaf; also recorded: still significant higher than that of plants in DMSO-sprayed control group
